Results taken from paper PMC12137981 (Acta Pharmaceutica Sinica. B, 2025).

Target: SUMOylation activating enzyme subunit 1 (SAE1) (Homo sapiens, UniProt Q9UBE0)
Test: MST with RED-NHS-labeled purified SAE1
Assay type: binding

Sequence of SUMOylation activating enzyme subunit 1 (SAE1) (Q9UBE0 whole entry): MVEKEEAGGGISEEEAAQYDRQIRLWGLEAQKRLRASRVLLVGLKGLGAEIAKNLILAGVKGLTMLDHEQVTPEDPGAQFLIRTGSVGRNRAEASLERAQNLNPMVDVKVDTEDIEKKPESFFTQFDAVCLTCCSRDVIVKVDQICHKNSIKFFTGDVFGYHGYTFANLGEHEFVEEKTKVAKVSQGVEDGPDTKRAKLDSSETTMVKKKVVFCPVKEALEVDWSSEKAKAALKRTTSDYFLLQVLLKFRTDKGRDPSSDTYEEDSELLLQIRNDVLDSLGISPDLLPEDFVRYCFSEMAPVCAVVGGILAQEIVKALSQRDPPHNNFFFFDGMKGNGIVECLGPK

With COc1cc2c(c(OC)c1OC)-c1ccc(OC)c(=O)cc1[C@@H](NC(C)=O)CC2 [COL, colchicine] as the compound, how does the Kd read?
The Kd was 2560 nM.
